The values that follow come from PMC6216040, “Repurposing of an old drug: In vitro and in vivo efficacies of buparvaquone against Echinococcus multilocularis” (International Journal for Parasitology: Drugs and Drug …, 2018).

In data set [1] the test system is E. multilocularis metacestodes. Description: BPQ treatment of E. multilocularis infected mice. It counts as in vivo, Balb/c mice. As for the experimental part:
Balb/c mice, 6 weeks old, were purchased from Charles River Laboratories (Sulzheim, Germany) and used for in vivo experiments when they were 8 weeks old and weighted approximately 20 g. The mice were housed in a type 3 cage containing enrichment in the form of a cardboard house and paper and woodchip bedding with a maximum of seven mice per cage. […] Food and water was provided ad libitum. Experimentally infected mice were treated with BPQ to elucidate the efficacy of the drug in vivo. To infect mice, in vitro grown E. multilocularis metacestodes (isolate […]) were washed in PBS, were mechanically destroyed by pipetting and the resulting suspension was centrifuged for 5 min at 500 g. The parasite tissue was then taken up in an equal volume of PBS. Each mouse was subsequently infected intraperitoneally (i.p.) with 200 μl of this suspension. […] infected mice were randomly distributed into 3 treatment groups (8 animals per group) with 4 animals per cage. […] Treatments of mice started 2 weeks post-infection and lasted for 4 weeks, with consecutive treatment of mice for 5 days per week, followed by an interruption of treatment for 2 days for recovery. All treatments were administered by oral gavage in a volume of 50 μl, with ABZ and BPQ being suspended in corn oil. After four weeks, all mice were anesthetized with isoflurane and subsequently euthanized by CO2. The parasitic tissue from each mouse was completely resected and weighed. The mass of the resected parasitic tissue was used for statistical analyses of the experiment. […] The significance level was set to p < 0.05. Figures were prepared in R and Adobe Illustrator 2015.1.0.

Data set [2] has as its system E. multilocularis metacestodes. Description: PGI-assay: drug-induced damage on in vitro cultured metacestodes (Pathogen Box screening cascade and EC50). The format is cell-based, Echinococcus multilocularis. Particulars: for activity in the present in vitro screen (threshold 20% relative activity compared to Tx-100) / activity in the screen at 10 μM (confirmed in triplicates, >20% relative PGI release): 10 μM; for activity against metacestodes at 1 μM / PGI release, % of Tx-100 control, average, 5d / PGI release, % of Tx-100 control, average, 12d: triplicates; for PGI release, % of Tx-100 control, average, 5d / PGI release, % of Tx-100 control, average, 12d: 1 µM; for activity in the screen at 10 μM (confirmed in triplicates, >20% relative PGI release): 5 and 12 days; for toxicity against E. multilocularis metacestodes compared with host cells (HFF, RH): comparison of EC50 with IC50 on mammalian cells.

Data set [3] relates to E. granulosus. Details: method as in Kammerer and Perez-Esandi, 1975; Miyaji et al., 1993. Particulars: ref Kammerer and Perez-Esandi, 1975; Miyaji et al., 1993; cited from earlier work.
Data set [4] relates to E. multilocularis metacestodes. Description: Vesicle viability assay by Alamar Blue (MIC). The format is cell-based, Echinococcus multilocularis. The protocol:
The setup was the same as for PGI-assay EC50 calculations and it was performed in triplicates. […] Data was used to calculate the minimal inhibitory concentrations (MICs) of these compounds on metacestodes.

Data set [5] has as its system Reuber rat hepatoma (RH) cells. Description: Cytotoxicity by Alamar Blue assay in rat hepatoma cells. It counts as cell-based. Particulars: 120 h.
For data set [6], the system named is human foreskin fibroblasts (HFF). Description: Cytotoxicity by Alamar Blue assay in human foreskin fibroblasts. Particulars: for IC50: Homo sapiens, Fibroblast, 120 h.
Data set [7] has the same test system. The arrangement: method as in Stadelmann et al., 2016. Particulars: ref Stadelmann et al., 2016; cited from earlier work.
The mark [8] stands for this setting: Echinococcus multilocularis, 120 h, 10 µM, singlets, 5 days of incubation, read-out: PGI release, % of the Tx-100 control, 5d.
[9] abbreviates: Echinococcus multilocularis, 288 h, 10 µM, singlets, 12 days of incubation, read-out: PGI release, % of the Tx-100 control, 12d.
The mark [10] stands for this setting: Echinococcus multilocularis, 288 h, read-out: E. multilocularis MIC, Alamar Blue vesicle viability assay, 12 days of incubation.
[11] abbreviates: read-out: HFF preconfluent IC50.
Where [12] appears, read: Echinococcus multilocularis, 120 h, read-out: PGI release, % of Tx-100 control, average, 5d.
The mark [13] stands for this setting: Echinococcus multilocularis, 120 h, read-out: PGI release, % of the Tx-100 control, 5d.
The mark [14] stands for this setting: Echinococcus multilocularis, 288 h, read-out: PGI release, % of Tx-100 control, average, 12d.
The mark [15] stands for this setting: Echinococcus multilocularis, 288 h, read-out: PGI release, % of the Tx-100 control, 12d.

In brackets after ≈: the same amount, converted by molar mass. Like-named read-outs stand apart in the source and are kept apart here.

With `CCCSc1ccc2nc(NC(=O)OC)[nH]c2c1` [ABZ, albendazole], the “parasite burden compared to the control” value in data set [1] (p.o. in corn oil, 5 days per week, 4 weeks, BPQ 100 mg/kg, ABZ 200 mg/kg) is “significant reduction”. Besides, the “adverse effects due to treatment” value in data set [1] (whole course of treatment, 4 weeks p.o.) is on record as “None of the mice showed signs of adverse effects”.

On to `N=C(N)c1ccc(OCCCCCOc2ccc(C(=N)N)cc2)cc1` [MMV000062, Pentamidine, reference compound], for which, in data set [2], the “activity in the present in vitro screen (threshold 20% relative activity compared to Tx-100)” value was “inactive”. In addition, the figures for the cytotoxicity at 10 µM in data set [2] (setting [8]) and in data set [2] (setting [9]) were -1% and -1.06%, respectively. Further, the “effect in vivo against E. granulosus” value in data set [3] is reported as “did not show any effects”.

Turning to `NCCC[C@](N)(C(=O)O)C(F)F` [MMV001625, alpha-Difluoromethylornithine, reference compound], in data set [2], the “activity in the present in vitro screen (threshold 20% relative activity compared to Tx-100)” value was “inactive”. For the same compound, the “PGI release, % of the Tx-100 control, 5d” value in data set [2] (10 µM, singlets, 5 days of incubation) was -0.43%. Moreover, the “PGI release, % of the Tx-100 control, 12d” value in data set [2] (10 µM, singlets, 12 days of incubation) is on record as -0.93%. Besides, in data set [3], the “effect in vivo against E. granulosus” value was “did not show any effects”.

For `c1ccc(-c2nc(NC3CCCCC3)cc(C3CC3)n2)nc1` [MMV021013], the MIC in data set [4] (setting [10]) stood at 20 µM (≈ 5.89 µg/mL). The IC50 stood at 2.07 µM in data set [5] (read-out: RH confluent IC50), 1.1 µM in data set [5] (read-out: RH preconfluent IC50), 53.1 µM in data set [6] (read-out: HFF confluent IC50) and 5.14 µM in data set [6] (setting [11]). Besides, the “activity against metacestodes at 1 μM” value in data set [2] is recorded as “distinct in vitro activities”. Besides, the “PGI release, % of Tx-100 control, average, 5d” value (shortened to “PGI release, % … average, 5d”) in data set [2] (5 days of incubation) is 3.92%. In addition, the “PGI release, % of Tx-100 control, average, 12d” value (“PGI release, % … average, 12d” below) in data set [2] (12 days of incubation) worked out at 24.95%. Besides, in data set [2], the “activity in the screen at 10 μM (confirmed in triplicates, >20% relative PGI release)” value is “active”. Moreover, the EC50 in data set [2] (Echinococcus multilocularis, 120 h, read-out: E. multilocularis EC50, PGI-assay, 5 days in vitro) was 15.8 µM. The cytotoxicity at 10 µM turned out to be 37.8% in data set [2] (setting [12]), 34.8% in data set [2] (setting [13]), 42.3% in data set [2] (setting [14]) and 92% in data set [2] (setting [15]). Moreover, in data set [2], the “toxicity against E. multilocularis metacestodes compared with host cells (HFF, RH)” value (shortened to “toxicity … compared with host cells (HFF, RH)”) was “as toxic to host cells as it was to E. multilocularis metacestodes”.

`Cc1ccc(C(=O)Nc2ccc(S(=O)(=O)O)c3cc(S(=O)(=O)O)cc(S(=O)(=O)O)c23)cc1NC(=O)c1cccc(NC(=O)Nc2cccc(C(=O)Nc3cc(C(=O)Nc4ccc(S(=O)(=O)O)c5cc(S(=O)(=O)O)cc(S(=O)(=O)O)c45)ccc3C)c2)c1` [MMV637953, Suramin, reference compound]: the “activity in the present in vitro screen (threshold 20% relative activity compared to Tx-100)” value in data set [2] is “inactive”. The cytotoxicity at 10 µM in data set [2] (setting [8]) amounted to 0.85%; in data set [2] (setting [9]), 0.51%. For the same compound, the “effect in vivo against E. granulosus” value in data set [3] is given as “did not show any effects”.

As for `O=C(Nc1cccc(C(F)(F)F)c1)c1cc(Cl)ccc1O` [MMV665807], the “toxicity against HFF” value in data set [7] is listed as “did not exhibit any specific toxicity”.

Consider `Cc1[nH]c2cc(F)cc(F)c2c(=O)c1-c1ccc(Oc2ccc(OC(F)(F)F)cc2)cc1` [MMV671636, ELQ-400], for which, in data set [4] (Alamar Blue vesicle viability assay, 12 days of incubation, listed as MMV671363), the “E. multilocularis MIC” value is reported as “below 1 μM”. Further, the MIC in data set [4] (Alamar Blue vesicle viability assay, 12 days of incubation, read-out: E. multilocularis MIC) is 0.01 µM (≈ 0.00447 µg/mL). In addition, the IC50 in data set [5] (read-out: RH confluent IC50) came to 2.07 µM; in data set [5] (read-out: RH preconfluent IC50), 0.25 µM; in data set [6] (read-out: HFF confluent IC50), 74.8 µM; in data set [6] (setting [11]), 12.3 µM; in data set [2] (Echinococcus multilocularis, read-out: IC50 against in vitro cultured E. multilocularis metacestodes) it was 0.02 µM. Further, the “activity against metacestodes at 1 μM” value in data set [2] is listed as “distinct in vitro activities”. The “PGI release, % … average, 5d” value in data set [2] (5 days of incubation) stood at 56.00%. Moreover, the “PGI release, % … average, 12d” value in data set [2] (12 days of incubation) is 70.43%. The “activity in the screen at 10 μM (confirmed in triplicates, >20% relative PGI release)” value in data set [2] was “active”. The cytotoxicity at 10 µM in data set [2] (setting [12]) stood at 5.44%; in data set [2] (setting [13]) it was 6.52%; in data set [2] (setting [14]) it was 76.1%; in data set [2] (setting [15]) it was 24%. Also, in data set [2], the “toxicity … compared with host cells (HFF, RH)” value is on record as “specific toxicity”. In addition, the EC50 in data set [2] (read-out: E. multilocularis EC50, PGI-assay, 5 days in vitro) was 0.02 µM; in data set [2] (read-out: E. multilocularis EC50, PGI-assay, 5 days in vitro, listed as MMV671363), < 1 µM.

Consider `O=C(Nc1cc(C(F)(F)F)cc(C(F)(F)F)c1)c1cc(Cl)ccc1O` [MMV687807], for which the MIC in data set [4] (setting [10]) was < 1 µM. The IC50 in data set [5] (read-out: RH confluent IC50) came to 20.1 µM; in data set [5] (read-out: RH preconfluent IC50), 1.27 µM; in data set [6] (read-out: HFF confluent IC50), 0.37 µM; in data set [6] (setting [11]) it was 0.15 µM. The “toxicity against HFF (in words)” value in data set [6] (among the four compounds) is reported as “highest toxicity against HFF”. Also, the “activity against metacestodes at 1 μM” value in data set [2] was “distinct in vitro activities”. Also, the “PGI release, % … average, 5d” value in data set [2] (5 days of incubation) turned out to be 40.83%. Further, the “PGI release, % … average, 12d” value in data set [2] (12 days of incubation) was 59.00%. Further, the “activity in the screen at 10 μM (confirmed in triplicates, >20% relative PGI release)” value in data set [2] was “active”. For the same compound, the cytotoxicity at 10 µM in data set [2] (setting [12]) worked out at 58.5%; in data set [2] (setting [13]), 30.8%; in data set [2] (setting [14]), 74.5%; in data set [2] (setting [15]), 64.7%. Further, the “toxicity … compared with host cells (HFF, RH)” value in data set [2] is reported as “could only exhibit a potential therapeutic window for RH cells”.
